Data on 29 compounds can be found in patent US12281112B2, “Compounds for inhibiting NLRP3 and uses thereof” (Ventus Therapeutics U.S., Inc., priority 2021, dated 2025).

The term IC50 denotes the concentration that gives 50% inhibition. The low end stands for greater potency, the high end for weaker potency.

The target in experiment [1] is T1, NLRP3 (Homo sapiens, UniProt Q96P20). In words: Human PBMC NLRP3 Assay. It counts as cell-based. On the procedure: Human PBMC NLRP3 Assay: Cryopreserved PBMCs were rapidly thawed in a 37° C. water bath for 2 min. […] A count was undertaken using a hemocytometer and adjusted to 2.5×10^5 cells/mL. V-shaped 96-well plates were seeded with 200 μL of PMBCs (5×10^4) per well and subsequently incubated overnight at 37° C. with 5% CO2. Assay Media was then prepared containing 100 ng/ml of LPS. PBMCs were then centrifuged at 1,200 RPM for 5 min, serum containing media was aspirated, and 150 μL/well of Assay Media+LPS was immediately added. Assay Media without LPS was added in the untreated control wells. Cells were then primed with LPS for 4 h at 37° C. with 5% CO2. A concentration response curve (CRC) was prepared of 1000× test compound in 100% DMSO. The CRC was then diluted 1:50 in Assay Media and then further diluted by 1:5× in Assay Media resulting in a final 4×CRC in 0.4% DMSO/Assay Media. 50 μL/well of 4× test compound CRC or vehicle (0.4% DMSO/Assay Media) was then transferred into each well and subsequently incubated for 30 min at 37° C. with 5% CO2. Cells were stimulated by adding 4 μL of 250 mM ATP, using a 250 mM stock prepared in 1 M Hepes without further dilution (for a final concentration of 5 mM), for 1 h at 37° C. with 5% CO2. Plates were then centrifuged at 1200 RPM for 5 min; and 50 μl of the media was transferred to a clean 96-well storage plate for cytokine measurements using the mesoscale platform, and stored at −80° C. until analyzed.
T1 sequence (Q96P20 whole entry): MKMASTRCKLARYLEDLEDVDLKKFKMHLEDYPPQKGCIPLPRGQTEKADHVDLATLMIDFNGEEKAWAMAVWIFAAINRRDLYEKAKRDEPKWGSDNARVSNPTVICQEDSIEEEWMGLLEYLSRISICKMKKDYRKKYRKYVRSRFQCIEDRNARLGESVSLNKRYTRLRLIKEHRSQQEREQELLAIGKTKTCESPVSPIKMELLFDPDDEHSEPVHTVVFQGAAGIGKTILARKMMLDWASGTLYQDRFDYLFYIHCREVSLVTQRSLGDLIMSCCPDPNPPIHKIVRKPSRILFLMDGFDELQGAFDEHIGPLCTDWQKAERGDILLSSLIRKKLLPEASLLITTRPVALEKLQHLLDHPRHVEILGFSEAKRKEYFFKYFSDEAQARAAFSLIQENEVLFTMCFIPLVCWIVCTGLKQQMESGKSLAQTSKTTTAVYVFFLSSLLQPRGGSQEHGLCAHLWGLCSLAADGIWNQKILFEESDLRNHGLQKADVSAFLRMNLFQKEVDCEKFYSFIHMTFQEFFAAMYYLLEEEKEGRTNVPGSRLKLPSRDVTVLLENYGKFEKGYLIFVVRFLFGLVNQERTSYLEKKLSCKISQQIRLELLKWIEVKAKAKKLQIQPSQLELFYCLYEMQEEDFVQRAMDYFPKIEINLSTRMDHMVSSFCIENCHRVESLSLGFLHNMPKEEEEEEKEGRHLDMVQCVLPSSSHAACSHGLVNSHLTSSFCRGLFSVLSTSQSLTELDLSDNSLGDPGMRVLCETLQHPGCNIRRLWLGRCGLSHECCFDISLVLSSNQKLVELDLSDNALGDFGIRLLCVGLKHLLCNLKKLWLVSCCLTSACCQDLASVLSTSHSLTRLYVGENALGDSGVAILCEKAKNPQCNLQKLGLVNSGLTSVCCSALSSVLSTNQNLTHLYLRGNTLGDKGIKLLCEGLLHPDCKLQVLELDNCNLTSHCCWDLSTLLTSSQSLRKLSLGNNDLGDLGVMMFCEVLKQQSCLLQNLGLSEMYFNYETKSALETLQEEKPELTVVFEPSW

Experiment [2] deals with T1, NLRP3. The experiment can be described thus: Human whole blood (hWB) NLRP3 Assay. It counts as cell-based. On the set-up: Blood is collected from healthy volunteers in heparin lithium tubes; from tissue; host or cells: pooled heparinised whole blood from healthy human volunteers, LPS-primed, ATP-stimulated. On the procedure: Blood is collected from healthy volunteers in heparin lithium tubes. • 2. Plate 90 μL of pooled blood per well in 96-well U-bottom plates. • 3. Add 5 uL of 20×LPS (20 ug/mL, final concentration of 1 ug/mL) and mix by gentle pipetting. • 4. Incubate in TC incubator for 4.5 hours. • 5. Add 5 uL of 20× compound or vehicle per well and mix by gentle pipetting. • a. Compounds are diluted 1/50 in HBSS to prepare a 20× dilution curve in 2% DMSO • 6. Incubate for 30 minutes in TC incubator with shaking (450 rpm). • 7. […] Incubate in TC incubator for 30 minutes with shaking (450 rpm). • 9. Centrifuge plate for 10 minutes at 800×g and carefully remove ˜70 μL of plasma. Freeze plasma if required. • 10. Analyze human IL-1b with IL-1b MSD assay (K151TUK) • a.

[3] abbreviates: human PBMCs primed with LPS 4 h, compound 30 min, ATP 5 mM 1 h, cytokine measurement on mesoscale platform, potency code.
[4] abbreviates: LPS 1 ug/mL 4.5 h, compound 30 min, ATP 5 mM 30 min, IL-1b MSD assay, potency code.
The mark [5] stands for this setting: Table 5: fused bicyclic analogs vs monocyclic pyridazines.
Where [6] appears, read: Table 6: regioisomer comparison.

The structures appear in SMILES notation.

Turning to `Cc1cc(Cl)ccc1-c1nnc(NCC2CCCO2)c2ccccc12` (stereo not shown) [Compound 20, 4-(4-chloro-2-methyl-phenyl)-N-(tetrahydrofuran-2-ylmethyl)phthalazin-1-amine], the IC50 against NLRP3 [1] (setting [3]) and against NLRP3 [2] (setting [4]) was 300 to 500 nM throughout.
For `CN(CC1CCCO1)c1nnc(-c2ccc(Cl)cc2)c2ccccc12` (stereo not shown) [Compound 19, 4-(4-chlorophenyl)-N-methyl-N-(tetrahydrofuran-2-ylmethyl)phthalazin-1-amine], the IC50 against NLRP3 [2] (setting [4]) was 300 to 500 nM.
The compound `Clc1ccc(-c2nnc(NCC3CCCOC3)c3ccccc23)cc1` (stereo not shown) [Compound 9, 4-(4-chlorophenyl)-N-(tetrahydropyran-3-ylmethyl)phthalazin-1-amine] displayed an IC50 at NLRP3 [2] (setting [4]) of 500 to 1000 nM.
On the same count and under the same terms, the same measure for `Clc1ccc(-c2nnc(NC[C@@H]3CCCO3)c3ccncc23)cc1` [Compound 2, (S)-4-(4-chlorophenyl)-N-((tetrahydrofuran-2-yl)methyl)pyrido[3,4-d]pyridazin-1-amine]: under 300 nM.
As for `Oc1cc(Cl)ccc1-c1nnc(N[C@H]2CCOC2)c2cnccc12` [Compound 89, (S)-5-chloro-2-(4-((tetrahydrofuran-3-yl)amino)pyrido[3,4-d]pyridazin-1-yl)phenol], the IC50 against NLRP3 [1] (setting [3]) is under 300 nM.
Take `Clc1ccc(-c2nnc(NCC3CCOCC3)c3ccccc23)cc1` [Compound 10, 4-(4-chlorophenyl)-N-(tetrahydropyran-4-ylmethyl)phthalazin-1-amine]: the IC50 against NLRP3 [2] (setting [4]) is over 1000 nM.
On the same count and under the same terms, the same measure for `Clc1ccc(-c2nnc(NCC3CCCCO3)c3ccccc23)cc1` (stereo not shown) [Compound 17, 4-(4-chlorophenyl)-N-(tetrahydropyran-2-ylmethyl)phthalazin-1-amine]: over 1000 nM; for `Clc1ccc(-c2nnc(OC[C@H]3CCCO3)c3cnccc23)cc1` [Compound 3, (R)-1-(4-chlorophenyl)-4-((tetrahydrofuran-2-yl)methoxy)pyrido[3,4-d]pyridazine]: 300 to 500 nM.
For `Clc1ccc(-c2nnc(OC[C@H]3CCCO3)c3ccncc23)cc1` [Compound 4, (R)-4-(4-chlorophenyl)-1-((tetrahydrofuran-2-yl)methoxy)pyrido[3,4-d]pyridazine], at NLRP3 [2] (setting [4]), the IC50 lay within 300 to 500 nM.
Regarding `Clc1ccc(-c2nnc(NCC3CCCO3)c3ccncc23)cc1` (stereo not shown) [Compound 15, 4-(4-chlorophenyl)-N-(tetrahydrofuran-2-ylmethyl)pyrido[3,4-d]pyridazin-1-amine], the IC50 is over 1000 nM against NLRP3 [1] (setting [3]) and 500 to 1000 nM against NLRP3 [2] (setting [4]).
For the compound `CC1COC(CNc2nnc(-c3ccc(Cl)cc3)c3ccccc23)C1` (stereo not shown) [Compound 22, 4-(4-chlorophenyl)-N-[(4-methyltetrahydrofuran-2-yl)methyl]phthalazin-1-amine], the IC50 on NLRP3 [2] (setting [4]) fell in the range of 500 to 1000 nM.
Turning to `Brc1ccc(-c2nnc(NCC3CCCO3)c3ccccc23)cc1` (stereo not shown) [drawing 168], the IC50 at NLRP3 [1] (setting [5]) came out at 190 nM.
With `Clc1ccc(-c2nnc(NCC3COCCO3)c3ccccc23)cc1` (single isomer, unassigned) [Compound 23], the results for the IC50 against NLRP3 [1] (setting [3]) and at NLRP3 [2] (setting [4]) were 500 to 1000 nM and over 1000 nM, respectively.
`Clc1ccc(-c2ccc(NCC3CCCO3)nn2)cc1` (stereo not shown) [drawing 169]: on NLRP3 [1] (setting [5]), the IC50 came out at 64000 nM.
Compound `Oc1cc(Cl)ccc1-c1nnc(NC[C@H]2CCC(F)(F)C2)c2cnccc12` (single isomer, unassigned) [Compound 91] registered an IC50 against NLRP3 [1] (setting [3]) of under 300 nM.
As to `CC1(CNc2ccc(-c3ccc(Br)cc3)nn2)CCCO1` (stereo not shown) [Compound 6, 6-(4-bromophenyl)-N-[(2-methyltetrahydrofuran-2-yl)methyl]pyridazin-3-amine], the IC50 on NLRP3 [1] (setting [3]) is over 1000 nM; against NLRP3 [2] (setting [4]), under 300 nM.
On to `Clc1ccc(-c2nnc(NCC3COCCO3)c3ccccc23)cc1` (single isomer, unassigned) [Compound 24], for which, on NLRP3 [2] (setting [4]), the IC50 is under 300 nM.
The same measure, in the same setting: the same measure for `COCCNc1nnc(-c2ccc(Cl)cc2)c2ccccc12` [Compound 18, 4-(4-chlorophenyl)-N-(2-methoxyethyl)phthalazin-1-amine]: under 300 nM.
At NLRP3 [1] (setting [3]), `CC(C)(O)CNc1nnc(-c2ccc(Cl)cc2O)c2ccncc12` [Compound 82, 5-chloro-2-(4-((2-hydroxy-2-methylpropyl)amino)pyrido[3,4-d]pyridazin-1-yl)phenol] showed a half-maximal inhibitory concentration (IC50) of under 300 nM.
For `Clc1ccc(-c2ccc(NCC3CCCO3)nn2)cc1` (stereo not shown) [drawing 171], the figures for the IC50 at NLRP3 [1] (setting [6]) and against NLRP3 [2] (setting [6]) were 64000 nM and over 50000 nM, respectively.
At NLRP3 [1] (setting [6]), `Clc1ccc(-c2nnc(NCC3CCCO3)c3ccncc23)cc1` (single isomer, unassigned) displayed an IC50 of 2900 nM.
In turn, `CC1(CNc2nnc(-c3ccc(Cl)cc3)c3ccccc23)CCCO1` (stereo not shown) [Compound 8, 4-(4-chlorophenyl)-N-[(2-methyltetrahydrofuran-2-yl)methyl]phthalazin-1-amine] returned an IC50 against NLRP3 [2] (setting [4]) of under 300 nM.
As to `FC(F)(F)c1ccc(-c2nnc(NCC3CCCO3)c3ccccc23)cc1` (stereo not shown) [Compound 11, N-(tetrahydrofuran-2-ylmethyl)-4-[4-(trifluoromethyl)phenyl]phthalazin-1-amine], the half-maximal inhibitory concentration (IC50) against NLRP3 [1] (setting [3]) and against NLRP3 [2] (setting [4]) was under 300 nM in each case.
In the case of `Brc1ccc(-c2nnc(NCC3CCCO3)c3ccccc23)cc1` (stereo not shown) [Compound 7, 4-(4-bromophenyl)-N-(tetrahydrofuran-2-ylmethyl)phthalazin-1-amine], the values for the IC50 on NLRP3 [1] (setting [3]) and against NLRP3 [2] (setting [4]) were under 300 nM and over 1000 nM, respectively.
With `Clc1ccc(-c2nnc(NC[C@H]3CCCO3)c3cc(Cl)ccc23)cc1` (racemic) [Compound 21, 7-chloro-4-(4-chlorophenyl)-N-[[rac-(2R)-tetrahydrofuran-2-yl]methyl]phthalazin-1-amine], the values for the IC50 on NLRP3 [1] (setting [3]) and against NLRP3 [2] (setting [4]) were 300 to 500 nM and under 300 nM, respectively.
The compound `Brc1ccc(-c2ccc(NCC3CCCO3)nn2)cc1` (stereo not shown) had an IC50 against NLRP3 [1] (setting [5]) of 3800 nM.
For `OCCNc1nnc(-c2ccc(Cl)cc2)c2ccccc12` [Compound 16, 2-[[4-(4-chlorophenyl)phthalazin-1-yl]amino]ethanol], at NLRP3 [2] (setting [4]), the IC50 fell in the range of 500 to 1000 nM.
For `COC(C)(C)CNc1nnc(-c2ccc(Cl)cc2O)c2ccncc12` [Compound 83, 5-chloro-2-(4-((2-methoxy-2-methylpropyl)amino)pyrido[3,4-d]pyridazin-1-yl)phenol], the IC50 against NLRP3 [1] (setting [3]) is under 300 nM.
The same measure, in the same setting: the same measure for `CN1CCC[C@H]1CNc1nnc(-c2ccc(Cl)cc2O)c2ccncc12` [Compound 93, (S)-5-chloro-2-(4-(((1-methylpyrrolidin-2-yl)methyl)amino)pyrido[3,4-d]pyridazin-1-yl)phenol]: under 300 nM.
